Measurements taken from ChEMBL document CHEMBL5608245, “Inhibition of the EphA2-Sam/Ship2-Sam Association through Peptide Ligands: Studying the Combined Effect of Charge and Aromatic Character” (J Med Chem, 2024).

Columns and labels:
[1] = Drug localization in human PC-3 cell cytoplasm at 50 uM incubated for 4 hrs by FITC staining based fluorescence microscopic analysis; assay type: ADME, subcellular; details: pc-3, 4 h
PC-3 = experiment: Cytotoxicity against human PC-3 cells assessed as reduction in cell viability at 50 uM incubated for 4 hrs by crystal violet staining based assay; assay type: toxicity; details: pc-3, 4 h
NHDF = experiment: Cytotoxicity against human NHDF cells assessed as reduction in cell viability at 50 uM incubated for 4 hrs by crystal violet staining based assay; assay type: toxicity

Drug uptake [1]: Active
SMILES: CSCC[C@H](NC(=O)[C@H](Cc1ccccc1)NC(=O)[C@H](CCCCN)NC(=O)[C@H](CC(=O)O)NC(=O)[C@H](CCC(=O)O)NC(=O)[C@H](CCCNC(=N)N)NC(=O)[C@H](CCCNC(=N)N)NC(=O)[C@@H](NC(=O)[C@@H]1CCCN1C(=O)CNC(=O)CNC(=O)CNC(=O)[C@H](CCC(N)=O)NC(=O)[C@@H]1CCCN1C(=O)[C@@H]1CCCN1C(=O)[C@H](CCCNC(=N)N)NC(=O)[C@H](CCCNC(=N)N)NC(=O)[C@H](CCCNC(=N)N)NC(=O)[C@H](CCC(N)=O)NC(=O)[C@H](CCCNC(=N)N)NC(=O)[C@H](CCCNC(=N)N)NC(=O)[C@H](CCCCN)NC(=O)[C@H](CCCCN)NC(=O)[C@H](CCCNC(=N)N)NC(=O)CNC(=O)[C@H](C)NC(C)=O)[C@@H](C)O)C(=O)N[C@@H](Cc1ccc(O)cc1)C(=O)N[C@@H](Cc1ccccc1)C(N)=O
Activity (PC-3): Toxic | Activity (NHDF): Toxic
